Results as given in the METLIN SMRT retention time set (Domingo-Almenara et al. 2019).

Experiment: gradient 5% acetonitrile 3 min, to 50% in 2 min, to 85% in 15 min, held 3 min, 100 µL/min
Conditions: column: Zorbax Extend-C18 2.1 x 50 mm; eluents: water / acetonitrile, 0.1% formic acid
Procedure, shortened: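 Retention time was recorded from adduct peaks, which were picked computationally and each inspected manually. Pure standards ran in mixtures of ~100 molecules on HPLC coupled to a quadrupole time-of-flight mass spectrometer, in positive and negative ionization mode, through a Zorbax Extend-C18 column (2.1 × 50 mm, 1.8 μm) at 100 μL/min. Eluents were water and acetonitrile, each with 0.1% formic acid.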

In the case of `COC[C@@H]1CN(S(=O)(=O)c2ccccc2F)C[C@H]1c1ccncc1`, the RP-LC retention time is reported as 745 s.

For `COc1cccc(/C=N\NC(=O)C(C)SC(C)C(=O)N/N=C/c2cccc(OC)c2)c1` (stereo not given), the RP-LC retention time was 769 s.

`COC(=O)c1ncn2c1C(=O)N(c1cccc(C)c1)C(C)(C(=O)NCc1ccc(C)cc1)C2` (stereo not given) showed an RP-LC retention time of 734 s.

Work on `CCOC(=O)c1c(S(=O)(=O)N2CCC(C(=O)NCc3ccc(F)cc3)CC2)c(C)n(CC)c1C` yielded an RP-LC retention time of 835 s.

For `COCCNC(=O)CC1CCN(C(=O)c2ccc3oc(C4CC4)nc3c2)CC1`, the RP-LC retention time was 601 s.

Work on `CCOC(=O)c1c(-c2ccc(OC)c(OC)c2)csc1NC(=O)CN1CCCC1` yielded an RP-LC retention time of 566 s.

Work on `CCOCCCNC(=O)Cn1c(=O)c2cccn2c2ccccc21` yielded an RP-LC retention time of 689 s.

Compound `Cc1ncc2c(n1)C[C@@H]1CC[C@H]2N1S(=O)(=O)c1ccc(F)cc1` has an RP-LC retention time of 720 s.

In the case of `COc1ccc(-c2noc(-c3ncn4c3COC(c3ccc(F)cc3)C4)n2)c(OC)c1` (stereo not given), the RP-LC retention time is reported as 954 s.

In the case of `O=C(Nc1ccccc1)C1CCCN(S(=O)(=O)c2c[nH]c(C(=O)N3CCCC3)c2)C1` (stereo not given), the RP-LC retention time is reported as 769 s.

Compound `O=C1CC(c2ccco2)Cc2[nH]c(=O)c(C(=O)Nc3ccccc3C(F)(F)F)cc21` (stereo not given) has an RP-LC retention time of 746 s.

`Cc1nnc2cc(N3CCN(C(=O)Nc4ccccc4Cl)CC3)cnn12` gave an RP-LC retention time of 567 s.

Work on `O=S(=O)(c1cccn2c(SCc3ccccc3F)nnc12)N1CCCC1` yielded an RP-LC retention time of 803 s.

`O=C(Nc1cnc(-c2ccc(Cl)cc2)nc1)C1CCCO1` (stereo not given) gave an RP-LC retention time of 910 s.

For `O=C(NCc1n[nH]c(=O)c2ccccc12)C(=O)N1CCCCC1`, the RP-LC retention time was 603 s.

Work on `COCCN1CC(CO)C2(CCN(Cc3ccc(F)c(Cl)c3)CC2)C1` (stereo not given) yielded an RP-LC retention time of 550 s.

`Cc1noc(C)c1Cc1c(C(=O)NCCn2c(C)cnc2C)noc1C` gave an RP-LC retention time of 601 s.

`COC1C(=O)N(c2cccc(F)c2)C12CCN(S(=O)(=O)c1cccs1)CC2` (stereo not given) showed an RP-LC retention time of 937 s.

In the case of `Cn1cc(S(=O)(=O)N2CCC(C(=O)NCc3cccs3)CC2)cc1C(=O)N1CCCC1`, the RP-LC retention time is reported as 706 s.

In the case of `CCc1nn2c(CNS(=O)(=O)c3ccc4c(c3)CCC4)c(-c3ccccc3)nc2s1`, the RP-LC retention time is reported as 1020 s.

`COc1cccc(Cn2c(=O)c3sccc3n(Cc3nc(-c4ccc(F)c(Cl)c4)no3)c2=O)c1` showed an RP-LC retention time of 1170 s.

In the case of `O=C(NCC1CCCO1)c1nc2ccccn2c1-c1ccc(Cl)cc1` (stereo not given), the RP-LC retention time is reported as 785 s.

In the case of `Cc1ccc(NC(=O)Cn2c(=O)n(-c3ccccc3)c(=O)c3c2cc(C)n3C)cc1F`, the RP-LC retention time is reported as 868 s.

With `COC(=O)c1ccc(NC(=O)Cn2nc3n(c2=O)CCCC3)cc1` the RP-LC retention time was 647 s.

For `O=C(NCc1ccc(F)cc1F)C1CCN(C(=O)c2ncn3c2COC(c2ccccc2)C3)CC1` (stereo not given), the RP-LC retention time was 784 s.

Work on `CCc1nc2cc(-c3noc(-c4ccccc4F)n3)ccc2o1` yielded an RP-LC retention time of 1140 s.

In the case of `O=C(Nc1nc(-c2ccc(F)cc2)cs1)c1c(-c2ccc(F)cc2)nc2n1CCS2(=O)=O`, the RP-LC retention time is reported as 1050 s.

`Cn1cnc(S(=O)(=O)N2CCCC(c3nnnn3-c3ccccc3)C2)c1` (stereo not given) showed an RP-LC retention time of 690 s.

`Cc1ccc(NC(=O)N2CCC(c3cc(N)on3)CC2)cc1F` showed an RP-LC retention time of 733 s.

With `CSc1nsc(SCC(=O)Nc2nc(-c3ccccc3)cs2)n1` the RP-LC retention time was 1070 s.

With `CCOc1ccccc1NC(=O)Cn1cnc2nc(N3CCC(C(=O)NC4CC4)CC3)sc2c1=O` the RP-LC retention time was 696 s.

In the case of `COCCN1C(=O)CCc2cc(NC(=O)CC3CCCCC3)ccc21`, the RP-LC retention time is reported as 814 s.

For `CSc1ccc(-c2noc(Cn3ncn4nc(-c5cc(C)ccc5C)cc4c3=O)n2)cc1`, the RP-LC retention time was 1260 s.

Work on `CCOc1ccc(S(=O)(=O)N2CCCC(C(=O)NCCOC)C2)cc1C` (stereo not given) yielded an RP-LC retention time of 769 s.

Compound `COc1ccc(Br)c(C(=O)N2CC(c3nc(-c4cccc(Cl)c4)no3)C2)c1` has an RP-LC retention time of 1000 s.

Compound `CCCOc1nc2ccccc2nc1N1CCCC(C(=O)Nc2ccccc2OCC)C1` (stereo not given) has an RP-LC retention time of 1280 s.

With `O=S(=O)(Nc1cccc(F)c1)c1ccc2nncn2c1` the RP-LC retention time was 657 s.

`Cn1c(N2CCC(C(=O)N3CCN(c4ccccn4)CC3)CC2)cc(=O)n(C)c1=O` gave an RP-LC retention time of 578 s.

In the case of `Cc1ccc(-c2noc(CN3C(=O)COc4ccccc43)n2)cc1C`, the RP-LC retention time is reported as 1110 s.

Compound `CCOC(=O)c1cnc(N2CCN(c3ccccc3F)CC2)c2ccccc12` has an RP-LC retention time of 1350 s.

`Cc1nc(-c2csc(S(=O)(=O)N3CCC(C(=O)Nc4ccc(F)cc4Cl)CC3)c2)no1` showed an RP-LC retention time of 1010 s.

`O=C(Cn1nc(C(=O)N2CCCC2)c2ccccc21)NC1CCCC1` showed an RP-LC retention time of 758 s.

With `COc1ccc(NC2=NS(=O)(=O)C(c3ccc(OC)cc3)=C2C)cc1` the RP-LC retention time was 910 s.

In the case of `Cc1nc(Cn2cccc2C(=O)Nc2ccc(C)c(Cl)c2)no1`, the RP-LC retention time is reported as 954 s.

Work on `CCn1nnc(NCc2ccc(-c3cccc(Cl)c3)o2)n1` yielded an RP-LC retention time of 1010 s.

With `CCNc1cc(N2CCC(CCC(=O)NCc3cc(F)cc(F)c3)CC2)ncn1` the RP-LC retention time was 669 s.

Compound `CCCN1C(=O)CCc2cc(NS(=O)(=O)c3ccccc3C(F)(F)F)ccc21` has an RP-LC retention time of 860 s.

`CCNC(=O)c1ccc2nc(C)c(C)nc2c1` gave an RP-LC retention time of 618 s.

`Cc1ccc(C2Cn3nc(-c4nc(-c5ccccc5)no4)cc3CO2)cc1` (stereo not given) gave an RP-LC retention time of 1260 s.

Work on `COc1ccc(Cc2nnc3sc(-c4cnccn4)nn23)cc1` yielded an RP-LC retention time of 730 s.

`COc1ccc(Cl)cc1NC(=O)N(C)CCc1noc(COc2ccccc2)n1` showed an RP-LC retention time of 1010 s.

Work on `Cc1cnn(Cc2nc(-c3ccc(NC(=O)c4ccco4)cc3)oc2C)c1` yielded an RP-LC retention time of 806 s.

`Cc1ccc(NC(=O)Cn2nc3nc(N4CCOCC4)ccn3c2=O)cc1F` showed an RP-LC retention time of 675 s.

`Cc1[nH]c(C)c(S(=O)(=O)N2CCN(c3ccccn3)CC2)c1C(=O)N1CCCCC1` showed an RP-LC retention time of 606 s.

For `CCc1c(CN2CCN(c3ccccn3)CC2)csc1C`, the RP-LC retention time was 596 s.

Work on `O=C(Nc1ccccc1Br)N1CCc2nc(-c3ccc(Cl)cc3)ncc2C1` yielded an RP-LC retention time of 1130 s.

For `Cc1nnc(NC(=O)Cc2csc(SCC(=O)c3ccc(F)cc3)n2)s1`, the RP-LC retention time was 724 s.

Compound `CCOc1ccc(S(=O)(=O)N2CCc3c(c(-c4nnc(-c5ccccc5F)o4)nn3C)C2)cc1` has an RP-LC retention time of 945 s.

`O=C(CN1C(=O)COc2ccc(Cl)cc21)NCC(=O)N1CCCc2ccccc21` showed an RP-LC retention time of 862 s.

Compound `CN1CCC2(CC1)N=C(c1ccc(Br)cc1)CC(c1cc(Cl)ccc1O)N2` (stereo not given) has an RP-LC retention time of 675 s.

With `Cc1cc(C)cc(N2CCC(NC(=O)NC(C)C)C2=O)c1` (stereo not given) the RP-LC retention time was 736 s.

`CCCCc1ccc(N2C(=O)CC(c3ccc(OC)c(OC)c3)CC2=O)cc1` gave an RP-LC retention time of 1040 s.

In the case of `Cc1cc(C)c(S(=O)(=O)N2CCc3c(c(-c4nnc(-c5ccccc5)o4)nn3C)C2)cc1C`, the RP-LC retention time is reported as 1070 s.

In the case of `CCOC(=O)CNC(=O)NCC(c1cccnc1)c1c[nH]c2ccccc12` (stereo not given), the RP-LC retention time is reported as 598 s.

`COc1ccc(-n2ncc3c(=O)n(Cc4nc(-c5ccc(C)c(C)c5)no4)cnc32)cc1` showed an RP-LC retention time of 1080 s.

Compound `CNC(=O)N1CCc2nn(Cc3ccccc3)c(=O)n2CC1` has an RP-LC retention time of 614 s.

For `CCc1ccccc1NC(=O)Cn1c(N)nc(C)cc1=O`, the RP-LC retention time was 584 s.

`C[C@]12CC[C@H](O)CC1=CC[C@@H]1[C@@H]2CC[C@]2(C)c3[nH]ncc3C[C@@H]12` gave an RP-LC retention time of 796 s.

Work on `COc1ccc(N2CC(c3nc(-c4ccc(Br)cc4)no3)CC2=O)cc1OC` (stereo not given) yielded an RP-LC retention time of 977 s.

`O=C([C@@H]1C[C@H](F)CN1S(=O)(=O)c1ccc(F)c(F)c1)N1CCc2ccccc2C1` showed an RP-LC retention time of 943 s.

With `Cc1ccccc1Cn1ccnc1C(=O)N1CCNC(=O)C1` the RP-LC retention time was 616 s.

Work on `O=C(NCc1cccc(Br)c1)C1CCCN(c2nccnc2Oc2ccccc2)C1` (stereo not given) yielded an RP-LC retention time of 1050 s.

For `Cc1cc(NC(=O)CSc2c(-c3ccccc3)[nH]c3ccccc23)no1`, the RP-LC retention time was 846 s.

Work on `Cc1noc(C)c1CCC(=O)N1CCN(c2ncnc3c2CCC3)CC1` yielded an RP-LC retention time of 576 s.

In the case of `CCN(CC)CCNC(=O)c1c(C)[nH]c(/C=C2\C(=O)Nc3ccc(F)cc32)c1C`, the RP-LC retention time is reported as 700 s.

Work on `CCc1nnc(NC(=O)CSc2nnc(-c3ccc(Cl)cc3)o2)s1` yielded an RP-LC retention time of 826 s.

`COc1ccc(Cc2nnc(C3CCN(C(=O)Cc4cccs4)CC3)s2)cc1` showed an RP-LC retention time of 745 s.

Work on `Cc1ccc(Nc2nc(-c3ccccc3)c(CC(=O)O)s2)cc1` yielded an RP-LC retention time of 900 s.

`Cc1c(F)cccc1NC(=O)Nc1ccc2nncn2c1` showed an RP-LC retention time of 660 s.

Work on `COCCOC(=O)c1c(C)oc2ccc(OC(=O)N(C)C)cc12` yielded an RP-LC retention time of 830 s.

`Cc1cccc(-c2nc(Cc3noc(-c4ccncc4)n3)c(C)o2)c1` showed an RP-LC retention time of 1010 s.

`C=C1C[C@@]23CC[C@H]4[C@@](C)(CCC[C@@]4(C)C(=O)O)[C@@H]2CC[C@]1(O)C3` showed an RP-LC retention time of 1030 s.

With `Cn1cnc(S(=O)(=O)N2CCC(c3noc(COCc4ccccc4)n3)C2)c1` (stereo not given) the RP-LC retention time was 761 s.

With `COc1ccc(-c2nc3cccc(C)n3c2Nc2ccccc2C)cc1` the RP-LC retention time was 773 s.

In the case of `COCCc1noc(CC2CCOC3(CCN(C(=O)NC(C)(C)C)CC3)C2)n1` (stereo not given), the RP-LC retention time is reported as 700 s.

Work on `CC1=CC(=C2C=CC(=O)C=C2)C=C(C)N1C` yielded an RP-LC retention time of 620 s.

`Cc1ccccc1N1CCN(C(=O)c2cc(C)n3nccc3n2)CC1` showed an RP-LC retention time of 883 s.

Compound `Cc1ccc(Nc2nc(-c3ccc(C)cc3)c(C)s2)cc1` has an RP-LC retention time of 1180 s.

In the case of `COc1ccc(-c2nc3ccc(C)cn3c2Nc2ccccc2C)cc1`, the RP-LC retention time is reported as 761 s.

With `O=C(NC1CC1)c1ccc(OCC2CCN(C(=O)Cc3ccccc3F)CC2)cc1` the RP-LC retention time was 803 s.
